Experimental data: patent US5130307A, “Aminoesters of rapamycin” (American Home Products Corporation, priority 1991, dated 1992)
Converted amounts (≈) assume the structure as drawn.

Assays:
Candida albicans = conditions: in vitro and in vivo; cited from earlier work
IgE-like antibodies = conditions: cited from earlier work
[1] = system: experimental allergic encephalomyelitis; conditions: in vivo; cited from earlier work
popliteal lymph node = popliteal lymph node (PLN) test procedure, in vivo mixed lymphocyte reaction; design: species or system C3H mice (BALB/c donors)
Method: (§1) Immunosuppressive activity was evaluated in an in vitro standard pharmacological test procedure to measure lymphocyte proliferation (LAF) and in two in vivo standard pharmacological test procedures. The first in vivo procedure was a popliteal lymph node (PLN) test procedure which measured the effect of compounds of this invention on a mixed lymphocyte reaction and the second in vivo procedure evaluated the survival time of a pinch skin graft.
A mixed lymphocyte reaction (MLR) occurs when lymphoid cells from genetically distinct animals are combined in tissue culture. Each stimulates the other to undergo blast transformation which results in increased DNA synthesis that can be quantified by the incorporation of tritiated thymidine. Since stimulating a MLR is a function of disparity at Major Histocompatibility antigens, an in vivo popliteal lymph node (PLN) test procedure closely correlates to host vs. graft disease. Briefly, irradiated spleen cells from BALB/c donors are injected into the right hind foot pad of recipient C3H mice. The drug is given daily, p.o. from Day 0 to Day 4. On Day 3 and Day 4, tritiated thymidine is given i.p., b.i.d. On Day 5, the hind popliteal lymph nodes are removed and dissolved, and radioactivity counted. […] Percent suppression is calculated using the non-drug treated animals as allogenic control. […]

transplant rejection = conditions: cited from earlier work
[2] = system: pinch skin graft from male DBA/2 donors transplanted to male BALB/c recipients; experiment: survival time of pinch skin graft; format: in vivo; conditions: for Skin Graft (days + SD), mean graft survival time: intraperitoneally
Method: as §1
The second in vivo test procedure is designed to determine the survival time of pinch skin graft from male DBA/2 donors transplanted to male BALB/c recipients. The method is adapted from Billingham R.E. and Medawar P.B., J. Exp. Biol. 28:385-402, (1951). Briefly, a pinch skin graft from the donor is grafted on the dorsum of the recipient as a homograft, and an autograft is used as control in the same region. […] Untreated recipients serve as rejection control. The graft is monitored daily and observations are recorded until the graft becomes dry and forms a blackened scab. This is considered as the rejection day. The mean graft survival time (number of days ±S.D.) of the drug treatment group is compared with the control group.

[3] = alone or in combination with picibanil; cited from earlier work
[4] = system: Candida albicans ATCC 38246; experiment: antifungal plate test, MIC; format: cell-based; conditions: ATCC38246
Method: (§2) The following represents the typical procedure used. Compound to be tested was placed on sterile dried 1/4" plate disks, and allowed to dry. Agar plates were seeded with fungi and allowed to solidify. The impregnated disks were placed on the seeded Agar surface and incubated for the time required for the particular culture. Results are expressed in MIC (μg/ml) to inhibit growth.

[5] = system: Candida albicans ATCC 38248; experiment: antifungal plate test, MIC; format: cell-based; conditions: ATCC38248
Method: as §2

Candida albicans 3669 = experiment: antifungal plate test, MIC; format: cell-based
Method: as §2

[6] = system: Candida albicans ATCC 10231; experiment: antifungal plate test, MIC; format: cell-based; conditions: ATCC10231
Method: as §2

[7] = system: Candida albicans ATCC 38247; experiment: antifungal plate test, MIC; format: cell-based; conditions: ATCC38247
Method: as §2

For `CO[C@H]1C[C@@H]2CC[C@@H](C)[C@@](O)(O2)C(=O)C(=O)N2CCCC[C@H]2C(=O)O[C@H]([C@H](C)C[C@@H]2CC[C@@H](O)[C@H](OC)C2)CC(=O)[C@H](C)/C=C(\C)[C@@H](O)[C@@H](OC)C(=O)[C@H](C)C[C@H](C)/C=C/C=C/C=C/1C` [Rapamycin], the “antifungal activity (in words)” value (Candida albicans) is listed as “antifungal activity, particularly against Candida albicans, both in vitro and in vivo”, the “inhibition of the formation of IgE-like antibodies (in words)” value (IgE-like antibodies) is listed as “effectively inhibited the formation of IgE-like antibodies” and the “effectiveness in experimental allergic encephalomyelitis model (in words)” value [1] is listed as “effective in the experimental allergic encephalomyelitis model”. For the same compound, the “PLN (ratio)” value (popliteal lymph node; p.o. daily Day 0 to Day 4, ratio, rapamycin 1.0) was 1.0, the “inhibition of transplant rejection / immunosuppressive effect (in words)” value (transplant rejection) was “effective in inhibiting transplant rejection” and the “Skin Graft (days + SD), mean graft survival time” value [2] was 12.0 ± 1.7 days. For the same compound, the “antitumor activity (in words)” value [3] was “has been shown to have antitumor activity”.
In the case of `CO[C@H]1C[C@@H]2CC[C@@H](C)[C@@](O)(O2)C(=O)C(=O)N2CCCC[C@H]2C(=O)O[C@H]([C@H](C)C[C@@H]2CC[C@@H](OC(=O)[C@H](CCCCNC(=O)OC(C)(C)C)NC(=O)OC(C)(C)C)[C@H](OC)C2)CC(=O)[C@H](C)/C=C(\C)[C@@H](O)[C@@H](OC)C(=O)[C@H](C)C[C@H](C)/C=C/C=C/C=C/1C` [Example 12, Rapamycin-42-ester with N^α, N^ε -bis[(1,1-dimethylethoxy)carbonyl]-L-lysine], the “effect on T cell proliferation in PLN (in words)” value (popliteal lymph node; negative ratio) is reported as “may cause T cell proliferation in the PLN test procedure”, the MIC [4] is reported as over 0.4 µg/mL and the MIC [5] is reported as 0.2 µg/mL (≈ 0.161 µM). The MIC (Candida albicans 3669) was 0.4 µg/mL (≈ 0.322 µM), the MIC [6] was 0.2 µg/mL (≈ 0.161 µM) and the MIC [7] was 0.1 µg/mL (≈ 0.0805 µM). The “Skin Graft (days + SD), mean graft survival time” value [2] was 12.0 ± 2.0 days and the “survival time of the skin graft (in words)” value ([2]; untreated grafts typically rejected within 6-7 days) was “increased survival time observed in the skin graft test procedure”.
